Publication PMC8125615 (Molecules, 2021)
Where two headings read alike, the source gives them in different places.

Experiments:
SARS CoV-2 M^pro = SARS CoV-2 M^pro (Severe acute respiratory syndrome coronavirus 2, UniProt P0DTD1); assay: In vitro enzyme inhibition assay (SARS-CoV-2 main protease assay kit, fluorescence); type: biochemical
Experimental: GC376 was used as a reference standard inhibitor.
Briefly, 10 µL of test compounds of different concentrations were added into a 96-well plate followed by pipetting 30 µL of the diluted protease 15 µg/mL. The mixtures were incubated for 30 min at room temperature, and then 10 µL of the substrate was dissolved in the reaction buffer and added to reach a 50-µL final volume and 40-µM final concentration. The reaction mixture was then incubated for 4 h at 20 °C followed by measuring the produced fluorescence using a TECAN spark microplate-reading fluorimeter.

SARS CoV M^pro = settings: cited from earlier work
[1] = SARS CoV-2 M^pro, fluorescence kit assay, GC376 as reference standard, read-out: IC50

| Structure (SMILES) | IC50 (SARS CoV-2 M^pro; [1]) [µM] | IC50 (SARS CoV M^pro) [µM] | IC50 (SARS CoV-2 M^pro) [µM] |
| --- | --- | --- | --- |
| C=C(C)[C@@H]1CC[C@]2(CO)CC[C@]3(C)[C@H](CC[C@@H]4[C@@]5(C)CC[C@H](O)C(C)(C)[C@@H]5CC[C@]43C)[C@@H]12 [betulin] | 89.7 | – | – |
| C=C(C)[C@@H]1CC[C@]2(C(=O)O)CC[C@]3(C)[C@H](CC[C@@H]4[C@@]5(C)CC[C@H](O)C(C)(C)[C@@H]5CC[C@]43C)[C@@H]12 [betulinic acid] | – | 10 | 14.5 ± 1.3 |
| CC1(C)CC[C@]2(C(=O)O)CC[C@]3(C)C(=CC[C@@H]4[C@@]5(C)C[C@@H](O)[C@H](O)C(C)(C)[C@@H]5CC[C@]43C)[C@@H]2C1 [maslinic acid] | 3.22 ± 0.26 | – | – |
| C[C@H]1[C@H](C)CC[C@]2(C(=O)O)CC[C@]3(C)C(=CC[C@@H]4[C@@]5(C)CC[C@H](O)C(C)(C)[C@@H]5CC[C@]43C)[C@H]12 [ursolic acid] | 12.6 ± 0.28 | – | – |
